Reference: US10836763B2, “5 to 7 membered heterocyclic amides as JAK inhibitors” (priority 2018, dated 2020)
Where two headings read alike, the source gives them in different places.

How the values were obtained:
[1] = system: IL-2 stimulated STAT5 phosphorylation in Tall-1 human T cell line; assay: Inhibition of IL-2 stimulated pSTAT5 in Tall-1 T cells; format: cell-based; details: TALL-1, 0.5 h, read-out: Tall-1 pIC50 (converted)
Experimental: Assay 2: Inhibition of IL-2 Stimulated pSTAT5 in Tall-1 T Cells
The potency of test compounds for inhibition of interleukin-2 (IL-2) stimulated STAT5 phosphorylation was measured in the Tall-1 human T cell line (DSMZ) using AlphaLisa.
Phosphorylated STAT5 was measured via the AlphaLISA SureFire Ultra pSTAT5 (Tyr694/699) kit (PerkinElmer).
Compounds were serially diluted in DMSO and dispensed acoustically to empty wells. Assay media (phenol red-free DMEM (Life Technologies) supplemented with 10% FBS (ATCC)) was dispensed (4 μL/well) and plates shaken at 900 rpm for 10 mins. Cells were seeded at 45,000 cells/well in assay media (4 μL/well), and incubated at 37° C., 5% CO2 for 1 hour, followed by the addition of IL-2 (R&D Systems; final concentration 300 ng/mL) in pre-warmed assay media (4 μL) for 30 minutes. […] The lysate was shaken at 900 rpm for 10 minutes at room temperature (RT). Phosphorylated STAT5 was measured via the pSTAT5 AlphaLisa kit (PerkinElmer). Freshly prepared acceptor bead mixture was dispensed onto lysate (5 μL) under green filtered <100 lux light. Plates were shaken at 900 rpm for 2 mins, briefly spun down, and incubated for 2 hrs at RT in the dark. Donor beads were dispensed (5 μL) under green filtered <100 lux light. Plates were shaken at 900 rpm for 2 minutes, briefly spun down, and incubated overnight at RT in the dark. Luminescence was measured with excitation at 689 nm and emission at 570 nm using an EnVision plate reader (PerkinElmer) under green filtered <100 lux light.
To determine the inhibitory potency of test compounds in response to IL-2, the average emission intensity of beads bound to pSTAT5 was measured in a human T cell line. IC50 values were determined from analysis of the inhibition curves of signal intensity versus compound concentration. Data are expressed as pIC50 (negative decadic logarithm IC50) values (mean±standard deviation).

[2] = system: IL-13 induced pSTAT6 in lung tissue; assay: Murine model of IL-13 induced pSTAT6 induction in lung tissue; format: in vivo, mouse; details: Balb/c mice, 1 mg/mL, 50 μL oral aspiration; IL-13 challenge 4 hours after compound; lung homogenate
Experimental: (§1) Assay 3: Murine (Mouse) Model of IL-13 Induced pSTAT6 Induction in Lung Tissue
IL-13 binds to cell surface receptors activating members of the Janus family of kinases (JAK) which then phosphorylate STAT6 and subsequently activates further transcription pathways. In the described model, a dose of IL-13 was delivered locally into the lungs of mice to induce the phosphorylation of STAT6 (pSTAT6) which is then measured as the endpoint.
Activity in the model is evidenced by a decrease in the level of pSTAT6 present in the lungs of treated animals at 5 hours compared to the vehicle treated, IL-13 challenged control animals. The difference between the control animals which were vehicle-treated, IL-13 challenged and the control animals which were vehicle-treated, vehicle challenged dictated the 0% and 100% inhibitory effect, respectively, in any given experiment.

[3] = Lung and plasma drug concentration in the murine IL-13 pSTAT6 model; format: in vivo; details: mouse, other: oral aspiration, 50 µg/mouse; for concentration at 5 h: Balb/c mice, 1 mg/mL, 50 μL oral aspiration, 5 hr post dose
Experimental: as §1
Adult Balb/c mice from Harlan were used in the assay. […] Animals were placed in lateral recumbency post dose and monitored for full recovery from anesthesia before being returned to their home cage. Four hours later, animals were once again briefly anesthetized and challenged with either vehicle or IL-13 (0.03 μg total dose delivered, 50 μL total volume) via oral aspiration before being monitored for recovery from anesthesia and returned to their home cage. One hour after vehicle or IL-13 administration, whole blood and lungs were collected for both pSTAT6 detection in lung homogenates using a Perkin Elmer AlphaLISA® SureFire® Ultra™ HV p-STAT6 (Tyr641) assay kit and for total drug concentration analysis in both lung and plasma. Blood samples were centrifuged (Eppendorf centrifuge, 5804R) for 4 minutes at approximately 12,000 rpm at 4° C. to collect plasma. […] Plasma and lung levels of test compound were determined by LC-MS analysis against analytical standards constructed into a standard curve in the test matrix. A lung to plasma ratio was determined as the ratio of the lung concentration in ng/g to the plasma concentration in ng/mL at 5 hours.

Lung S9 metabolism = format: in vitro ADME, human
Experimental: Assay 5: Lung S9 Metabolism […] Lung S9 fractions from human (lot 1410245) were purchased from XenoTech LLC (Lenexa, Kans.). NADPH (Sigma Aldrich, N1630) and 3-phosphoadenosine 5-phosphosulfate (PAPS) (Sigma Aldrich, A1651) were purchased from Sigma Aldrich (St. Louis, Mo.). Acetonitrile and water were obtained from VWR (Radnor, Pa.) and were of HPLC grade or better. Raloxifene and formic acid was purchased from Sigma Aldrich (St. Louis, Mo.). Lung S9 incubations were performed in a water bath at 37° C. in a 96-well polypropylene plate. […] All samples were centrifuged at 2250 g for 10 minutes at 5° C. Supernatant (50 μL) was taken from the centrifuged samples and diluted into 100 μL HPLC water containing internal standard. […] Mobile Phase A consisted of Water+0.2% formic acid and Mobile Phase B consisted of acetonitrile+0.2% formic acid. Peak integration was accomplished using Gubbs GMSU software (Gubbs Inc., Alpharetta, Ga.). For each sample, peak area ratios were calculated by dividing the analyte peak area by the internal standard peak area. […] Determination of sulfate metabolite formation was made qualitatively by observation of early-eluting peak in the parent ion channel which, based on historical internal data, corresponded to the O-sulfate metabolite of each parent compound.

## CCc1cc(O)ccc1-c1ccc2c(-c3nc4c([nH]3)CN(C(C)C)[C@H](C(=O)N3CC[C@H](N(C)C)C3)C4)n[nH]c2c1 [Compound 6, ((S)-3-(dimethylamino)pyrrolidin-1-yl)((S)-2-(6-(2-ethyl-4-hydroxyphenyl)-1H-indazol-3-yl)-5-isopropyl-4,5,6,7-tetrahydro-3H-imidazo[4,5-c]pyridin-6-yl)methanone]
[1]
  IC50: 2 nM
[2]
  pSTAT6 inhibition at 5 hours: 37%
[3]; Balb/c, lung ng/g to plasma ng/mL at 5 hours, mice, oral aspiration, read-out: Lung to Plasma ratio at 5 hr
  Kp at 5 h: 1030
[3]; lung, read-out: Lung Concentration (ng/g) at 5 hr
  concentration at 5 h: 11600 ± 4680 ng/g
[3]; plasma, read-out: Plasma Concentration (ng/mL) at 5 hr
  concentration at 5 h: 11.3 ± 5.7 ng/mL
Lung S9 metabolism; human lung S9, 1 μM compound, 1 mg/mL S9 protein, NADPH and PAPS
  Compound Remaining at 60 min (%): 82%
Lung S9 metabolism; lung S9 fraction, pH 7.4, human lung S9, 1 μM compound, 1 mg/mL S9 protein, NADPH and PAPS, read-out: Clearance
  microsomal CLint at 1 µM: 3.4 µL/min/mg
Lung S9 metabolism; qualitative, O-sulfate metabolite peak in human lung S9
  Sulfate Appearance: Yes
